Test results reported in the supplement of paper PMC10307832.

Legend:
Assay in all cases: relative viability (nuclei count vs DMSO), 5 days (fraction); higher = more cells survive
XMD14-99 + Olaparib = compound: CN1CCN(CC1)C2=CC(=C(C=C2)NC3=NC(=C(S3)C(=O)C4=C(C=CC=C4Cl)Cl)N)OC [XMD14-99] + O=C(c1cc(Cc2n[nH]c(=O)c3ccccc23)ccc1F)N1CCN(C(=O)C2CC2)CC1 [Olaparib] (partner 8 µM)
Summary of the method: (§1)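 Five library-drug doses in √10 steps were combined with a fixed anchor-drug dose, or a single drug was given alone, by pin tool to lung cancer cell lines in 1536-well plates the day after seeding. Nuclei were stained and counted after 5 days. Relative viability is the nuclei count in treated wells over that in vehicle wells, taken as the median of duplicate plates.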

AZD1208 + Decitabine = compound: N[C@@H]1CCCN(c2c(/C=C3\SC(=O)NC3=O)cccc2-c2ccccc2)C1 [AZD1208] + Nc1ncn([C@H]2C[C@H](O)[C@@H](CO)O2)c(=O)n1 [Decitabine] (partner 2 µM)
Summary of the method: as §1

XMD14-99 + Lapatinib = compound: CN1CCN(CC1)C2=CC(=C(C=C2)NC3=NC(=C(S3)C(=O)C4=C(C=CC=C4Cl)Cl)N)OC [XMD14-99] + CS(=O)(=O)CCNCc1ccc(-c2ccc3ncnc(Nc4ccc(OCc5cccc(F)c5)c(Cl)c4)c3c2)o1 [Lapatinib] (partner 2 µM)
Summary of the method: as §1

AZD1208 + Tozasertib = compound: N[C@@H]1CCCN(c2c(/C=C3\SC(=O)NC3=O)cccc2-c2ccccc2)C1 [AZD1208] + Cc1cc(Nc2cc(N3CCN(C)CC3)nc(Sc3ccc(NC(=O)C4CC4)cc3)n2)n[nH]1 [Tozasertib] (partner 0.1 µM)
Summary of the method: as §1

| Cell Line | relative viability (XMD14-99 + Olaparib; first compound 0.08 µM) | relative viability (XMD14-99 + Olaparib; first compound 0.8 µM) | relative viability (XMD14-99 + Olaparib; first compound 2.53 µM) | relative viability (XMD14-99 + Olaparib; first compound 8 µM) | relative viability (AZD1208 + Decitabine; first compound 0.08 µM) | relative viability (AZD1208 + Decitabine; first compound 0.253 µM) | relative viability (AZD1208 + Decitabine; first compound 0.8 µM) | relative viability (AZD1208 + Decitabine; first compound 2.53 µM) | relative viability (AZD1208 + Decitabine; first compound 8 µM) | relative viability (XMD14-99 + Lapatinib; first compound 0.08 µM) | relative viability (XMD14-99 + Lapatinib; first compound 0.8 µM) | relative viability (XMD14-99 + Lapatinib; first compound 2.53 µM) | relative viability (XMD14-99 + Lapatinib; first compound 8 µM) | relative viability (AZD1208 + Tozasertib; first compound 0.08 µM) | relative viability (AZD1208 + Tozasertib; first compound 0.253 µM) | relative viability (AZD1208 + Tozasertib; first compound 0.8 µM) | relative viability (AZD1208 + Tozasertib; first compound 2.53 µM) | relative viability (AZD1208 + Tozasertib; first compound 8 µM) |
| --- | --- | --- | --- | --- | --- | --- | --- | --- | --- | --- | --- | --- | --- | --- | --- | --- | --- | --- |
| NCI-H1395 | 0.475 | 0.472 | 0.47 | 0.364 | 0.724 | 0.785 | 0.714 | 0.719 | 0.685 | 0.985 | 0.958 | 1.04 | 0.809 | 0.803 | 0.68 | 0.677 | 0.629 | 0.571 |
| NCI-H1437 | 0.615 | 0.622 | 0.56 | 0.464 | 0.546 | 0.594 | 0.638 | 0.581 | 0.536 | 0.804 | 0.745 | 0.573 | 0.458 | 0.429 | 0.378 | 0.335 | 0.353 | 0.351 |
| NCI-H1650 | 0.834 | 0.597 | 0.639 | 0.734 | 0.513 | 0.502 | 0.403 | 0.376 | 0.449 | 0.702 | 1.03 | 0.725 | 0.619 | 0.423 | 0.387 | 0.277 | 0.321 | 0.304 |
| NCI-H1651 | 0.187 | 0.203 | 0.147 | 0.157 | 0.665 | 0.642 | – | 0.613 | 0.554 | 0.779 | 0.823 | 0.79 | 0.705 | 0.698 | 0.661 | 0.652 | 0.529 | 0.408 |
| NCI-H1666 | 0.81 | 0.73 | 0.737 | 0.763 | 0.735 | 0.713 | 0.635 | 0.743 | 0.629 | 0.741 | 0.582 | 0.721 | 0.399 | 0.535 | 0.6 | 0.513 | 0.644 | 0.58 |
| NCI-H1734 | 0.605 | 0.581 | 0.595 | 0.385 | 0.534 | 0.466 | 0.44 | 0.424 | 0.409 | 1.01 | 0.997 | 1.05 | 0.825 | 0.272 | 0.26 | 0.247 | 0.219 | 0.227 |
| NCI-H1755 | 0.888 | 0.815 | 0.835 | 0.622 | 0.695 | 0.675 | 0.723 | 0.713 | 0.625 | 1.08 | 1.01 | 0.955 | 0.827 | 0.525 | 0.532 | 0.52 | 0.417 | 0.358 |
| NCI-H1793 | 0.818 | 0.915 | 0.782 | 0.622 | 0.447 | 0.448 | 0.509 | 0.463 | 0.363 | 0.646 | 0.729 | 0.647 | 0.633 | 0.302 | 0.313 | 0.314 | 0.296 | 0.267 |
| NCI-H1915 | 0.239 | 0.246 | 0.268 | 0.234 | 0.249 | 0.263 | 0.235 | 0.271 | 0.231 | 1 | 0.974 | 0.959 | 0.911 | 0.427 | 0.378 | 0.367 | 0.249 | 0.244 |
